Source: the CheMixHub viscosity set
Values joined by “and” are separate entries in the source; they are usually repeats but may differ in a detail not shown here. Equal values may be shown once. ± gives the uncertainty stated by the source.

Test: xn = mol fraction of the nth substance listed

Cc1cc(C)cc(C)c1 + C1CCCCC1
viscosity [mPa·s], 101 kPa
Conditions	303 K	303.15 K	308.15 K	313 K	313.15 K	318.15 K	323 K	323.15 K
x1 = 0.1001	–	0.7294 ± 0.0076	0.6779 ± 0.0073	–	0.6321 ± 0.0071	0.591 ± 0.0069	–	0.5529 ± 0.0067
x1 = 0.1028	0.7231 ± 0.0051	–	–	0.6296 ± 0.0045	–	–	0.5473 ± 0.004	–
x1 = 0.2001	–	0.6775 ± 0.0073	0.6326 ± 0.0071	–	0.5925 ± 0.0069	0.5562 ± 0.0067	–	0.5229 ± 0.0066
x1 = 0.2002	0.6616 ± 0.0048	–	–	0.5833 ± 0.0043	–	–	0.518 ± 0.0039	–
x1 = 0.299	0.6393 ± 0.0047	–	–	0.5651 ± 0.0042	–	–	0.5048 ± 0.0039	–
x1 = 0.3	–	0.6444 ± 0.0072	0.6039 ± 0.0069	–	0.5675 ± 0.0068	0.5341 ± 0.0066	–	0.5036 ± 0.0065
x1 = 0.396	0.6187 ± 0.0047	–	–	0.5553 ± 0.0042	–	–	0.4899 ± 0.0038	–
x1 = 0.4	–	0.6263 ± 0.0071	0.5881 ± 0.0069	–	0.5539 ± 0.0067	0.5231 ± 0.0066	–	0.4941 ± 0.0064
x1 = 0.4961	0.6085 ± 0.0047	–	–	0.5439 ± 0.0042	–	–	0.4892 ± 0.0039	–
x1 = 0.5	–	0.6163 ± 0.007	0.5791 ± 0.0068	–	0.5465 ± 0.0067	0.5165 ± 0.0065	–	0.4886 ± 0.0064
x1 = 0.5971	0.6054 ± 0.0047	–	–	0.54 ± 0.0043	–	–	0.4863 ± 0.0039	–
x1 = 0.6	–	0.6104 ± 0.007	0.5748 ± 0.0068	–	0.5431 ± 0.0066	0.5143 ± 0.0065	–	0.4873 ± 0.0064
x1 = 0.699	0.6015 ± 0.0048	–	–	0.5379 ± 0.0043	–	–	0.4853 ± 0.004	–
x1 = 0.7	–	0.6099 ± 0.007	0.5746 ± 0.0068	–	0.5428 ± 0.0066	0.514 ± 0.0065	–	0.4871 ± 0.0064
x1 = 0.7992	0.6055 ± 0.0049	–	–	0.543 ± 0.0044	–	–	0.4858 ± 0.004	–
x1 = 0.8001	–	0.6119 ± 0.007	0.5767 ± 0.0068	–	0.5451 ± 0.0067	0.5165 ± 0.0065	–	0.4904 ± 0.0064
x1 = 0.8983	0.6081 ± 0.005	–	–	0.543 ± 0.0045	–	–	0.4893 ± 0.0041	–
x1 = 0.9	–	0.6162 ± 0.007	0.5819 ± 0.0068	–	0.551 ± 0.0067	0.5223 ± 0.0066	–	0.494 ± 0.0064

Cc1cc(C)cc(C)c1 + CCCO
293.15 K, 101 kPa
Conditions	viscosity [mPa·s]
x2 = 0.2	0.748 ± 0.015
x2 = 0.4	0.855 ± 0.017
x2 = 0.6	1.075 ± 0.02
x2 = 0.8	1.419 ± 0.026

O=C1CCCN1 + CC(O)CO
Conditions	viscosity [mPa·s]
298.15 K, 101.33 kPa, x1 = 0.06223	38.56 ± 0.81
298.15 K, 101.33 kPa, x1 = 0.09322	36.35 ± 0.75
298.15 K, 101.33 kPa, x1 = 0.1974	30.23 ± 0.63
298.15 K, 101.33 kPa, x1 = 0.2925	26.21 ± 0.55
298.15 K, 101.33 kPa, x1 = 0.3956	23.01 ± 0.49
298.15 K, 101.33 kPa, x1 = 0.5612	19.49 ± 0.43
298.15 K, 101.33 kPa, x1 = 0.5963	18.87 ± 0.4
298.15 K, 101.33 kPa, x1 = 0.7003	17.36 ± 0.36
298.15 K, 101.33 kPa, x1 = 0.7843	16.26 ± 0.34
298.15 K, 101.33 kPa, x1 = 0.8992	14.8 ± 0.31
298.15 K, 101.33 kPa, x1 = 0.9581	13.93 ± 0.29
308.15 K, 101.33 kPa, x1 = 0.05382	23.04 ± 0.48
308.15 K, 101.33 kPa, x1 = 0.1106	20.74 ± 0.43
308.15 K, 101.33 kPa, x1 = 0.1986	18.2 ± 0.38
308.15 K, 101.33 kPa, x1 = 0.3058	15.92 ± 0.33
308.15 K, 101.33 kPa, x1 = 0.3989	14.45 ± 0.31
308.15 K, 101.33 kPa, x1 = 0.512	12.98 ± 0.27
308.15 K, 101.33 kPa, x1 = 0.5975	12.23 ± 0.26
308.15 K, 101.33 kPa, x1 = 0.6998	11.39 ± 0.24
308.15 K, 101.33 kPa, x1 = 0.8034	10.71 ± 0.22
308.15 K, 101.33 kPa, x1 = 0.8984	9.939 ± 0.21
308.15 K, 101.33 kPa, x1 = 0.957	9.465 ± 0.2
313.15 K, 101 kPa, x1 = 0.0803	16.98 ± 0.15
313.15 K, 101 kPa, x1 = 0.1596	15.07 ± 0.13
313.15 K, 101 kPa, x1 = 0.2403	13.58 ± 0.11
313.15 K, 101 kPa, x1 = 0.3201	12.41 ± 0.1
313.15 K, 101 kPa, x1 = 0.4011	11.51 ± 0.093
313.15 K, 101 kPa, x1 = 0.481	10.79 ± 0.087
313.15 K, 101 kPa, x1 = 0.5617	10.17 ± 0.082
313.15 K, 101 kPa, x1 = 0.6394	9.657 ± 0.077
313.15 K, 101 kPa, x1 = 0.7192	9.2 ± 0.073
313.15 K, 101 kPa, x1 = 0.7993	8.742 ± 0.069
313.15 K, 101 kPa, x1 = 0.8723	8.338 ± 0.066
313.15 K, 101 kPa, x1 = 0.9579	7.845 ± 0.062
318.15 K, 101.33 kPa, x1 = 0.06032	14.2 ± 0.29
318.15 K, 101.33 kPa, x1 = 0.09973	13.37 ± 0.28
318.15 K, 101.33 kPa, x1 = 0.1931	11.82 ± 0.25
318.15 K, 101.33 kPa, x1 = 0.3054	10.43 ± 0.22
318.15 K, 101.33 kPa, x1 = 0.3986	9.613 ± 0.2
318.15 K, 101.33 kPa, x1 = 0.5124	8.834 ± 0.19
318.15 K, 101.33 kPa, x1 = 0.6012	8.369 ± 0.18
318.15 K, 101.33 kPa, x1 = 0.6899	7.95 ± 0.17
318.15 K, 101.33 kPa, x1 = 0.7926	7.488 ± 0.16
318.15 K, 101.33 kPa, x1 = 0.9004	7.031 ± 0.15
318.15 K, 101.33 kPa, x1 = 0.9614	6.774 ± 0.14

Cc1ncc(CO)c(CO)c1O.Cl + O
101 kPa
Conditions	viscosity
293.15 K, x1 = 0.001798	1.047 ± 0.0074 mPa·s
293.15 K, x1 = 0.0018	1.047 ± 0.0074 mPa·s
298.15 K, x1 = 0.00081	0.9087 ± 0.0066 mPa·s
298.15 K, x1 = 0.000909	0.918 ± 0.007 mPa·s
298.15 K, x1 = 0.001809	0.95 ± 0.007 mPa·s
298.15 K, x1 = 0.002028	0.9328 ± 0.0067 mPa·s
298.15 K, x1 = 0.002489	0.9415 ± 0.0067 mPa·s
298.15 K, x1 = 0.002657	0.96 ± 0.007 mPa·s
298.15 K, x1 = 0.003638	0.99 ± 0.007 mPa·s
298.15 K, x1 = 0.003926	0.9708 ± 0.0068 mPa·s
298.15 K, x1 = 0.004487	1.007 ± 0.007 mPa·s
298.15 K, x1 = 0.004756	0.9841 ± 0.0069 mPa·s
298.15 K, x1 = 0.005406	1.027 ± 0.008 mPa·s
298.15 K, x1 = 0.006266	1.04 ± 0.008 mPa·s
298.15 K, x1 = 0.006666	1.03 ± 0.0071 mPa·s
298.15 K, x1 = 0.007307	1.06 ± 0.008 mPa·s
298.15 K, x1 = 0.00813	1.073 ± 0.008 mPa·s
298.15 K, x1 = 0.008945	1.084 ± 0.008 mPa·s
298.15 K, x1 = 0.009813	1.108 ± 0.008 mPa·s
303.15 K, x1 = 0.0018	0.832 ± 0.0061 mPa·s
303.15 K, x1 = 0.00359	0.8603 ± 0.0062 mPa·s and 0.8604 ± 0.0062 mPa·s
308.15 K, x1 = 0.002028	0.7519 ± 0.006 mPa·s
308.15 K, x1 = 0.002489	0.7601 ± 0.006 mPa·s
308.15 K, x1 = 0.003926	0.7829 ± 0.0061 mPa·s
308.15 K, x1 = 0.004756	0.7924 ± 0.0062 mPa·s
308.15 K, x1 = 0.006666	0.828 ± 0.0063 mPa·s
313.15 K, x1 = 0.001798	0.6798 ± 0.0051 mPa·s and 0.6802 ± 0.0051 mPa·s and 0.68 ± 0.0083 mPa·s
313.15 K, x1 = 0.00359	0.7025 ± 0.0052 mPa·s
313.15 K, x1 = 0.007154	0.7543 ± 0.0056 mPa·s and 0.7545 ± 0.0056 mPa·s
318.15 K, x1 = 0.002028	0.6236 ± 0.0055 mPa·s
318.15 K, x1 = 0.002489	0.6303 ± 0.0055 mPa·s
318.15 K, x1 = 0.003926	0.649 ± 0.0056 mPa·s
318.15 K, x1 = 0.004756	0.6605 ± 0.0057 mPa·s
318.15 K, x1 = 0.006666	0.6863 ± 0.0058 mPa·s
323.15 K, x1 = 0.001798	0.5675 ± 0.007 mPa·s
323.15 K, x1 = 0.0018	0.5673 ± 0.0043 mPa·s
323.15 K, x1 = 0.005375	0.6071 ± 0.0046 mPa·s and 0.6075 ± 0.0046 mPa·s and 0.6074 ± 0.0074 mPa·s

Cc1cc(C)cc(C)c1 + CS(C)=O
viscosity [mPa·s], 101.3 kPa
Conditions	x2 = 0.0996	x2 = 0.1961	x2 = 0.3046	x2 = 0.4024	x2 = 0.5049	x2 = 0.6057	x2 = 0.7047	x2 = 0.8055	x2 = 0.9018
298.15 K	0.699 ± 0.037	0.772 ± 0.04	0.865 ± 0.044	1.018 ± 0.05	1.168 ± 0.057	1.28 ± 0.062	1.367 ± 0.065	1.508 ± 0.071	1.711 ± 0.08
303.15 K	0.654 ± 0.035	0.718 ± 0.037	0.799 ± 0.041	0.901 ± 0.045	1.029 ± 0.051	1.136 ± 0.055	1.241 ± 0.06	1.372 ± 0.066	1.553 ± 0.073
308.15 K	0.616 ± 0.033	0.674 ± 0.035	0.747 ± 0.039	0.831 ± 0.042	0.935 ± 0.047	1.036 ± 0.051	1.135 ± 0.055	1.266 ± 0.061	1.42 ± 0.068

CCC[NH3+].O=[N+]([O-])[O-] + O
298 K, 101 kPa
Conditions	viscosity [mPa·s]
x2 = 0.1	50.56 ± 1.6
x2 = 0.198	34.71 ± 1
x2 = 0.294	24.59 ± 0.67
x2 = 0.397	16.65 ± 0.43
x2 = 0.494	11.43 ± 0.28
x2 = 0.596	7.63 ± 0.18
x2 = 0.696	5.02 ± 0.11
x2 = 0.797	3.19 ± 0.07
x2 = 0.9	1.86 ± 0.04
x2 = 0.95	1.35 ± 0.03

OCCC1CCCCN1 (stereo not given) + O
viscosity [mPa·s], 101.3 kPa
Conditions	x1 = 0.0153	x1 = 0.0564	x1 = 0.102	x1 = 0.173	x1 = 0.295
298.15 K	1.426 ± 0.022	3.959 ± 0.058	9.631 ± 0.12	24.9 ± 0.31	89.03 ± 2.3
313.15 K	1.025 ± 0.016	2.371 ± 0.035	5.15 ± 0.074	11.33 ± 0.14	35.53 ± 0.41
